In ChEMBL document CHEMBL1201862, “PubChem BioAssay data set” (2004):
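Each compound was tested at five concentrations against cells in 96-well plates for 48 hours. GI50 is the concentration that inhibits growth by half.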 Active and inactive are the calls of the source. No stated cut-off is given here; in the data, active = GI50 up to about 1.1 µM and inactive = higher.

Tests used:
Experiment in all cases: inhibition of tumour cell growth, NCI panel, 48 h
EKVX = system: EKVX
SF-539 = system: SF-539
SNB-78 = system: SNB-78
A498 = system: A498
SR = system: SR
HOP-18 = system: HOP-18
DMS-273 = system: DMS-273
KM12 = system: KM12
UACC-62 = system: UACC-62
NCI-H226 = system: NCI-H226
HOP-62 = system: HOP-62
CAKI-1 = system: CAKI-1
RPMI-8226 = system: RPMI-8226
MCF7 = system: MCF7
NCI/ADR-RES = system: NCI/ADR-RES
MDA-N = system: MDA-N
Hs-578T = system: Hs-578T
MDA-MB-231 = system: MDA-MB-231
MDA-MB-435 = system: MDA-MB-435
PC-3 = system: PC-3

Structure (SMILES) | GI50 (EKVX) | GI50 (SF-539) | GI50 (SNB-78) | GI50 (A498) | GI50 (SR) | GI50 (HOP-18) | GI50 (DMS-273) | GI50 (KM12) | GI50 (UACC-62) | GI50 (NCI-H226) | GI50 (HOP-62) | GI50 (CAKI-1) | GI50 (RPMI-8226) | GI50 (MCF7) | GI50 (NCI/ADR-RES) | GI50 (MDA-N) | GI50 (Hs-578T) | GI50 (MDA-MB-231) | GI50 (MDA-MB-435) | GI50 (PC-3)
COC[C@@H](Cc1ccc(OC)c(OC)c1)[C@@H](COC)Cc1ccc(OC)c(OC)c1 | > 100 µM (inactive) | > 100 µM (inactive) | > 100 µM (inactive) | > 100 µM (inactive) | 95.3 µM (inactive) | > 100 µM (inactive) | 76.6 µM (inactive) | > 100 µM (inactive) | > 100 µM (inactive) | – | – | – | – | – | – | – | – | – | – | –
C=COCCCOc1ccccc1 | > 100 µM (inactive) | > 100 µM (inactive) | – | – | > 100 µM (inactive) | 1.53 µM (inactive) | > 100 µM (inactive) | > 100 µM (inactive) | – | > 100 µM (inactive) | > 100 µM (inactive) | > 100 µM (inactive) | > 100 µM (inactive) | – | – | – | – | – | – | –
CC(C)(Br)C1(O)CCCN1C(=O)c1ccccc1 (stereo unspecified) | > 100 µM (inactive) | > 100 µM (inactive) | > 100 µM (inactive) | > 100 µM (inactive) | > 100 µM (inactive) | > 100 µM (inactive) | > 100 µM (inactive) | > 100 µM (inactive) | > 100 µM (inactive) | – | – | – | – | – | – | – | – | – | – | –
Nc1nnc(CCC(=O)Nc2cc(Cl)ccc2Cl)n1N | > 100 µM (inactive) | > 100 µM (inactive) | > 100 µM (inactive) | > 100 µM (inactive) | > 100 µM (inactive) | > 100 µM (inactive) | > 100 µM (inactive) | > 100 µM (inactive) | > 100 µM (inactive) | > 100 µM (inactive) | > 100 µM (inactive) | > 100 µM (inactive) | > 100 µM (inactive) | – | – | – | – | – | – | –
COc1cccc(C2C(C(=O)O)=C(CO)Oc3cc4c(cc32)OCO4)c1 (stereo unspecified) | > 100 µM (inactive) | > 100 µM (inactive) | > 100 µM (inactive) | > 100 µM (inactive) | – | > 100 µM (inactive) | – | – | > 100 µM (inactive) | > 100 µM (inactive) | – | > 100 µM (inactive) | > 100 µM (inactive) | – | – | – | – | – | – | –
C/C(=N/NS(=O)(=O)c1ccc([N+](=O)[O-])cc1)c1cccc[n+]1[O-] | > 100 µM (inactive) | > 100 µM (inactive) | > 100 µM (inactive) | > 100 µM (inactive) | > 100 µM (inactive) | > 100 µM (inactive) | > 100 µM (inactive) | > 100 µM (inactive) | > 100 µM (inactive) | – | > 100 µM (inactive) | > 100 µM (inactive) | > 100 µM (inactive) | – | – | – | – | – | – | –
CCCn1cc2c3c(cccc31)C1C=C(C)CN(C)C1C2 (stereo unspecified) | 18 µM (inactive) | 25.6 µM (inactive) | 30.3 µM (inactive) | 13.7 µM (inactive) | – | 13.7 µM (inactive) | 13.3 µM (inactive) | 24.2 µM (inactive) | 23.4 µM (inactive) | 12.8 µM (inactive) | 31.7 µM (inactive) | 11.8 µM (inactive) | 6.61 µM (inactive) | 9.71 µM (inactive) | 20.8 µM (inactive) | – | – | – | – | –
O=C(NNC(=O)c1nsc2ccccc12)c1ccc(Cl)cc1 | 18.2 µM (inactive) | 17 µM (inactive) | 24.8 µM (inactive) | – | 25.1 µM (inactive) | 10.2 µM (inactive) | 8.11 µM (inactive) | 27.2 µM (inactive) | > 10 µM (inactive) | – | 18.3 µM (inactive) | – | 20.4 µM (inactive) | – | – | – | – | – | – | –
Cc1c(N(Cc2ccccc2)Cc2ccccc2)nc(S(C)(=O)=O)nc1S(C)(=O)=O | 1.53 µM (inactive) | 13 µM (inactive) | 2.2 µM (inactive) | – | 1.58 µM (inactive) | 4.99 µM (inactive) | 2.2 µM (inactive) | – | 1.71 µM (inactive) | 12.7 µM (inactive) | 14.7 µM (inactive) | 8.07 µM (inactive) | 2.74 µM (inactive) | – | – | – | – | – | – | –
COc1ccc(CC2CCc3nc(N)nc(N)c3C2)cc1OC (stereo unspecified) | 2.01 µM (inactive) | 2.25 µM (inactive) | – | 17.3 µM (inactive) | 3.7 µM (inactive) | – | – | 1.28 µM (inactive) | 0.0612 µM (active) | 12.1 µM (inactive) | 13.7 µM (inactive) | 2.29 µM (inactive) | 13.1 µM (inactive) | 1.15 µM (inactive) | 1.29 µM (inactive) | 0.0507 µM (active) | > 56.1 µM (inactive) | 12.9 µM (inactive) | 1.41 µM (inactive) | 0.0716 µM (active)
C=C1C(=O)O[C@@H]2[C@H]3O[C@]3(C)CCC=C(C)CC[C@@H]12 | 17.4 µM (inactive) | 19 µM (inactive) | 18.2 µM (inactive) | 7.05 µM (inactive) | – | 14.9 µM (inactive) | 24.6 µM (inactive) | 16.8 µM (inactive) | 16.8 µM (inactive) | 20.5 µM (inactive) | 49.1 µM (inactive) | 9.31 µM (inactive) | 8.71 µM (inactive) | 16.4 µM (inactive) | 15 µM (inactive) | – | – | – | – | –
C=C1c2nc3ccccc3n2C=C(c2ccccc2)N1c1ccc([N+](=O)[O-])cc1 | 4.85 µM (inactive) | 1.05 µM (active) | – | 8.38 µM (inactive) | 4.95 µM (inactive) | – | – | 4.14 µM (inactive) | 7.26 µM (inactive) | 5.5 µM (inactive) | 4.92 µM (inactive) | 9.2 µM (inactive) | 8.81 µM (inactive) | 3.61 µM (inactive) | 7.18 µM (inactive) | 7.6 µM (inactive) | 3.04 µM (inactive) | 2.39 µM (inactive) | 5.61 µM (inactive) | 15.3 µM (inactive)
CC(C)(C)C(=O)OCC1OC(N=[N+]=[N-])C(OC(=O)C(C)(C)C)C(OC(=O)C(C)(C)C)C1OC(=O)C(C)(C)C (stereo unspecified) | > 100 µM (inactive) | > 100 µM (inactive) | > 100 µM (inactive) | > 100 µM (inactive) | > 100 µM (inactive) | – | > 100 µM (inactive) | > 100 µM (inactive) | > 100 µM (inactive) | – | > 100 µM (inactive) | > 100 µM (inactive) | > 100 µM (inactive) | – | – | – | – | – | – | –
